Experimental data from a melting point compilation (Tetko et al.; mined from patent text by program, amines drawn as free bases though some values may be those of a salt).

| SMILES | melting point |
| --- | --- |
| CC(C)c1nc2cc(N)ccn2n1 | 174 to 176 °C |
| O=C1NC(=O)c2c1c(-c1ccccc1Cl)cc1c2c2cc(O)ccc2n1CCCc1nnn[nH]1 | 269 to 272 °C |
| CN(CC(=O)O)C(=O)Nc1ccc(Cl)c(Cl)c1 | 103 to 105 °C |
| CC(=O)OC[C@@H]1C=C[C@H](n2cnc3c(Cl)nc(N)nc32)C1 | 124 to 127 °C |
| N#Cc1nn(-c2c(Cl)cc(C(F)(F)F)cc2Cl)c(N)c1-c1onc(Br)c1Br | 279 °C |
| CC(C)P1(=O)c2ccccc2CN1C (stereo not given) | 72 to 74 °C |
| CSc1[nH]c(-c2ccccc2C)cc1C#N | 148 to 149 °C |
| Nc1cc(N2CCCC2)c(F)cc1[N+](=O)[O-] | 115 to 116 °C |
| CC12CCC3C(CCC4CC5OC5CC43C)C1CC(N1CCCC1)C2=O (stereo not given) | 146 °C |
| Cc1c(C#N)sc2nc(CCCc3ccccc3)nc(N3CCN(C)CC3)c12 | 101 to 103 °C |
| O=C(CO)Nc1ccc(O)cc1 | 141 to 143 °C |
| CC1(C)CC(=O)C2=C(C1)NC1=C(C(=O)CC(C)(C)C1)C2c1ccc(Cl)c(Cl)c1 | > 300 °C |
| CN1CCCc2ccc(O)cc21 | 97 to 98 °C |
| CC(=O)SC(CC(=O)c1ccc(Cl)cc1)C(=O)O (stereo not given) | 68 to 69 °C |
| O=C(Cn1nnnc1-c1ccsc1)OCCO | 103 to 106 °C |
| COCOc1cc(C(=O)OC)[nH]n1 | 54 to 55 °C |
| CC(C)(C)c1cc(-c2n[nH]c(=O)[nH]2)cc(C(C)(C)C)c1O | 276 to 280 °C |
| Cc1cc(-n2c(Cl)cnc2C)cc2ccc(=O)[nH]c12 | 258 to 261 °C |
| CC(=O)OC1CC2=CCC3C4CCCC4(C)CCC3C2(C)C(OC(C)=O)C1 (stereo not given) | 163 to 165 °C |
| O=C1Nc2ncc(Br)cc2C1(Br)Br | 157 to 158 °C |
| CCOC(=O)CC(=O)c1cc(F)c(F)c(Br)c1Cl | 47 to 51 °C |
| COc1ccc(-c2c3cccc(C(F)(F)F)c3nn2CC(C)C)c(OC)c1 | 111 to 112 °C |

| SMILES | melting point |
| --- | --- |
| Cc1c[nH]c2c1C(=O)CC(c1cccs1)C2 (stereo not given) | 195 to 196 °C |
| CN1CS(=O)c2cccc(Br)c21 (stereo not given) | 138 to 140 °C |
| COc1ccc2c(c1)CCC1=C2CCC2(CC(C)C)C(=O)CC=C12 (stereo not given) | 57 to 60 °C |
| CCOC(=O)c1ccc(C#CC(O)c2cc(C(C)(C)C)cc(C(C)(C)C)c2OC)cc1 (stereo not given) | 101 to 103 °C |
| Cc1ccc(S(=O)(=O)c2nc(Cl)c([N+](=O)[O-])s2)cc1 | 153 to 154 °C |
| NP(N)(=O)Nc1ccccc1[N+](=O)[O-] | 200 °C |
| CCN1CCN(CCc2ccc(-c3ccc4c(Nc5cc(OC)c(Cl)cc5Cl)c(C#N)cnc4c3)cc2)CC1 | 75 to 78 °C |
| CC1=Nc2ccc(C)cc2C(=O)C1 | 80 to 82 °C |
| CCOCc1nc2c(N)nc3cc(OCCCn4cccc4)ccc3c2n1CC(C)C | 160 to 162 °C |
| CC1(C)CN(C(=N)NC=C(C#N)C(=O)N(CC2CC2)c2cccc(C(F)(F)F)c2)C(=O)N1 | 121 to 122 °C |
| CCOC(=O)c1cc(Nc2cccnc2)c(=O)n(CC)n1 | 166 to 167 °C |
| CCOc1cc(-c2cc(C(F)(F)F)n3ncc(C(=O)Nc4cc(S(=O)(=O)NCCO)sc4Cl)c3n2)ccc1C(F)(F)F | 250 °C |
| CC(=O)C(=Cc1ccc(Cl)c([N+](=O)[O-])c1)C(C)=O | 110 to 111 °C |
| O=S(=O)(CCS(=O)(=O)c1nc(-c2ccc(F)cc2)c(-c2ccc(F)cc2)[nH]1)c1nc(-c2ccc(F)cc2)c(-c2ccc(F)cc2)[nH]1 | 246 to 248 °C |
| CNC(=O)N(O)C(C)c1ccc(-n2c(C)ccc2C)cc1 (stereo not given) | 131 to 133 °C |
| CC(C)(Nc1ccccc1[N+](=O)[O-])C(=O)O | 132 to 133 °C |
| Cc1c(N2CCC(N(C)C)C(C)(C)C2)c(F)cc2c(=O)c(C(=O)O)cn(C3CC3)c12 (stereo not given) | 209 to 210 °C |
| CCOCC(OC(C)=O)C1CC(=O)C2(C)CCC3C(CCC4=CC(=O)C=C(C)C43C)C12 (stereo not given) | 155 to 157 °C |
| CCCc1oc(C)cc1C(=O)O | 91 to 102 °C |
| O=C(Nc1cc(C(F)(F)F)nc(C(F)(F)F)c1)C(=O)Nc1cc(C(F)(F)F)nc(C(F)(F)F)c1 | 271 to 272 °C |
| CCCc1nc(-c2ncn3c2COC(=O)c2c(Cl)cccc2-3)no1 | 130 to 132 °C |

The remaining lines, values ahead:

| melting point | SMILES |
| --- | --- |
| 90 to 92 °C | OCCc1nc(NCc2ccccn2)c2c(-c3ccccc3)csc2n1 |
| 139 to 142 °C | O=C(OC1CCCCC1)C1=C(c2ccccc2)C(c2ccccc2)OC1=O (stereo not given) |
| 275 to 276 °C | Cc1ccc(-c2[nH]c(C)nc2C(=O)Nc2nccs2)cc1 |
| 67 °C | CCOC(=O)c1cnn(-c2ccccc2)c1OC |
| 108 to 110 °C | CC(C)(C)OC(=O)N1CCC[C@@H](Nc2nccc(-c3c(-c4cccc(C#N)c4)nc4sccn34)n2)C1 |
| 97 to 98 °C | Cc1nc(C)c(Cl)c(NCc2cc(OCC(F)(F)F)c(OCc3ccccc3)c(Br)n2)n1 |
| 183 to 185 °C | CC(C)N1C(=O)NC(c2ccc3c(c2)CCO3)c2cc3c(cc21)OCO3 (stereo not given) |
| 144 °C | COc1ccc(-c2nc(-c3ccc4c(c3)N(C)C(=O)CS4)cs2)cc1OC |
| 198 to 199 °C | CCNc1nnc2ccc(-c3cccc(N(C)C(=O)CC)c3)nn12 |
| 78 °C | COc1ccc2occ(CCN3CCN(c4cccc5cccnc45)CC3)c2c1 |
| 130 to 140 °C | O=C(Oc1ccccc1)c1ccc(NS(=O)(=O)c2ccccc2)cc1Cl |
| 213 to 229 °C | O=C(O)C(c1ccccc1)N1C(=O)c2cccc([N+](=O)[O-])c2C1=O (stereo not given) |
| 214 to 215 °C | O=C(Nc1c[nH]nc1C(=O)NCCc1ccccc1)c1ccccn1 |
| 247 °C | Nc1ccc(NCCc2ccccc2)cc1 |
| 149 to 151 °C | Cn1c(-c2ccccc2)cc(O)c(C(=O)c2ccccc2)c1=O |
| 200 to 201 °C | CC1(C)Oc2ccc(S(=O)(=O)c3ccccc3)cc2[C@@H](N2CCCC2=O)[C@@H]1O (relative stereo) |
| 158 °C | Oc1ccc2c(c1)SCCc1c-2n(CCCCCN2CCCC2)c2ccccc12 |
| 215 to 217 °C | COc1ccc(-c2cncc(C#N)c2-c2ccc3[nH]ccc3c2)cc1OC |
| 108 °C | CCCc1cc(-c2ccccc2)ccc1C(=O)O |

| melting point | SMILES |
| --- | --- |
| 110 to 115 °C | CC(C#Cc1cccc(Oc2ccccc2)c1)N(O)C(N)=O (stereo not given) |
| 129 to 130 °C | FC(F)(F)c1cc(-c2cc3ccccc3o2)c2cccc(C(F)(F)F)c2n1 |
| 275 to 276 °C | Cc1ccccc1-c1c(N)c(=O)oc2cc3c(cc12)CCC3 |
| 138 to 139 °C | C=C(C)C(=O)OC(COc1ccc(C(=O)c2ccccc2)c(O)c1)COc1ccc(C(=O)c2ccccc2)c(O)c1 |
| 136 to 139 °C | COC(=O)c1ccc(Cn2ccc(OCc3ccc(F)cc3F)c(Br)c2=O)cc1 |
| 124 to 126 °C | CC(=O)Oc1ccccc1C(=O)NC(O)C(Cl)(Cl)Cl (stereo not given) |
| 196 to 197 °C | CCc1nn(C2CCCCC2)c2cc(C(=O)O)ccc12 |
| 78 to 79 °C | O=CNc1c(-c2ccccc2)sc2ccccc12 |
| 224 to 226 °C | O=C(Nc1cccc(-c2ccnc3c(C(=O)c4cccs4)cnn23)c1)c1ccc(-n2cccc2)cc1 |
| 180 to 182 °C | CCNC(C)CCC1(C(N)=O)c2ccccc2-c2ccccc21 (stereo not given) |
| 115 to 117 °C | N#Cc1ccccc1Nc1cc2c(cc1Nc1ccccc1)C(=O)NC2=O |
| 260 °C | CCc1ccc2c(c1)C=Cc1cc(C)ccc1C2c1cn(Cc2ccc(C(=O)Nc3nnn[nH]3)o2)c(=O)[nH]c1=S (stereo not given) |
| 220 °C | O=c1[nH]c2cccc3c2n1CCC(NCCO)C3O (stereo not given) |
| 108 to 109 °C | COc1ccc(C(=O)NCCc2cccc(C)c2)cc1OC |
| 28 to 30 °C | CCOC(=O)c1ccccc1-c1cc(-c2cccc(C(F)(F)F)c2)no1 |
| 265 to 267 °C | CC(=O)NC[C@H]1CN(c2ccc(N3CCC(=C(C#N)c4ccccn4)CC3)c(F)c2)C(=O)O1 |
| 136 to 137 °C | Cc1oc(-c2ccccc2)nc1COc1cc(COc2ncccc2CO)on1 |
| 161 to 164 °C | CCOC(=O)c1c[nH]c(Br)c1-c1ccc(Cl)cc1 |
| 200 to 201 °C | CC(C(O)c1ccc2c(c1)CCCS2)N1CCC(NC(=O)c2ccccc2)CC1 (stereo not given) |

| melting point | SMILES |
| --- | --- |
| 57 to 59 °C | CC(C)(C)OC(=O)NCC(Cl)c1ccccc1 (stereo not given) |
| 73 to 75 °C | CCCc1ccccc1OCCCCCOc1ccc2c(=O)cc(C(=O)OCC)oc2c1CCC |
| 139 to 140 °C | CN(c1cccc2cc(C3=NCC(CN4CCOCC4)S3)[nH]c12)S(=O)(=O)c1cccs1 (stereo not given) |
| 124 to 125 °C | CC/C(=C\c1cccc(OCc2nc(-c3ccc(C(F)(F)F)cc3)oc2C)c1)Cn1oc(=O)[nH]c1=O |
| 109 to 112 °C | CNC(=O)N(OC)c1ccccc1COc1ccc2c(c1)OCC2=NOC |
| 120 to 123 °C | CC(C)c1cccc(C(C)C)c1NC(=O)Cc1ccccc1NCCc1ccccc1 |
| 194 to 198 °C | O=C1CN(c2cccc(Cl)c2)C(=O)N1S(=O)(=O)c1ccc2ccccc2c1 |
| 222 to 224 °C | O=C(Nc1ccc(N2CC(F)(F)C2)nc1)c1cc2cc(C(F)(F)F)cnc2n1Cc1cccc(F)c1 |
| 84 to 87 °C | Cc1nc2cnccc2n1-c1ccc(Cn2c(=O)oc3ccccc32)cc1 |
| 245 to 247 °C | Cn1c2c(c3ccccc31)C(=O)C(CNC1=NCCN1)CS2 (stereo not given) |
| 104 to 106 °C | Cc1cccc(C(=O)O)c1OCc1ccc(C(F)(F)F)cc1 |
| 183 to 184 °C | CC(=O)Oc1ccc(-c2cnc[nH]c2=O)cc1OC(C)=O |
| 160 to 161 °C | COc1cc(CCCS2(OCC(=O)O)C=CN=C2)cc(OCc2ccc3ccccc3c2)c1 (stereo not given) |
| 218 to 220 °C | CCc1cc(C(=O)c2ccccc2Cl)c(-n2cnnc2CNC(=O)c2cc3ccccc3n2CC(=O)O)s1 |
| 170 °C | COc1ccc2c(c1)ncc1c(=O)n(-c3ccccc3)oc12 |
| 117 °C | CCOC(=O)c1cnn2c(-c3cccc(N(CC)C(=O)OC)c3)ccnc12 |
| 147 to 149 °C | COc1ccc(C2CN(O)C3(C)CCCCC23)cc1OC (stereo not given) |
| 109 to 110 °C | CC(=O)OCC(=O)c1ccc(-c2ccccc2)cc1 |
| 143 to 144 °C | N/C(=C1/Sc2ccccc2C1=O)c1ccccc1Br |
